# Assay results reported in patent US8959984B2, “Proteome-wide quantification of small molecule binding to cellular target proteins” (priority 2007, dated 2015).
# “And” between values parts separate entries of the source, which are not always exact repeats. Equal values may be shown once.
# Key:
# Assay in all cases: binding to AX14596 beads (HeLa lysate, SILAC MS)
# [1] = target: T1, GAK (Homo sapiens, UniProt O14976)
# T1 sequence (O14976 1-1311): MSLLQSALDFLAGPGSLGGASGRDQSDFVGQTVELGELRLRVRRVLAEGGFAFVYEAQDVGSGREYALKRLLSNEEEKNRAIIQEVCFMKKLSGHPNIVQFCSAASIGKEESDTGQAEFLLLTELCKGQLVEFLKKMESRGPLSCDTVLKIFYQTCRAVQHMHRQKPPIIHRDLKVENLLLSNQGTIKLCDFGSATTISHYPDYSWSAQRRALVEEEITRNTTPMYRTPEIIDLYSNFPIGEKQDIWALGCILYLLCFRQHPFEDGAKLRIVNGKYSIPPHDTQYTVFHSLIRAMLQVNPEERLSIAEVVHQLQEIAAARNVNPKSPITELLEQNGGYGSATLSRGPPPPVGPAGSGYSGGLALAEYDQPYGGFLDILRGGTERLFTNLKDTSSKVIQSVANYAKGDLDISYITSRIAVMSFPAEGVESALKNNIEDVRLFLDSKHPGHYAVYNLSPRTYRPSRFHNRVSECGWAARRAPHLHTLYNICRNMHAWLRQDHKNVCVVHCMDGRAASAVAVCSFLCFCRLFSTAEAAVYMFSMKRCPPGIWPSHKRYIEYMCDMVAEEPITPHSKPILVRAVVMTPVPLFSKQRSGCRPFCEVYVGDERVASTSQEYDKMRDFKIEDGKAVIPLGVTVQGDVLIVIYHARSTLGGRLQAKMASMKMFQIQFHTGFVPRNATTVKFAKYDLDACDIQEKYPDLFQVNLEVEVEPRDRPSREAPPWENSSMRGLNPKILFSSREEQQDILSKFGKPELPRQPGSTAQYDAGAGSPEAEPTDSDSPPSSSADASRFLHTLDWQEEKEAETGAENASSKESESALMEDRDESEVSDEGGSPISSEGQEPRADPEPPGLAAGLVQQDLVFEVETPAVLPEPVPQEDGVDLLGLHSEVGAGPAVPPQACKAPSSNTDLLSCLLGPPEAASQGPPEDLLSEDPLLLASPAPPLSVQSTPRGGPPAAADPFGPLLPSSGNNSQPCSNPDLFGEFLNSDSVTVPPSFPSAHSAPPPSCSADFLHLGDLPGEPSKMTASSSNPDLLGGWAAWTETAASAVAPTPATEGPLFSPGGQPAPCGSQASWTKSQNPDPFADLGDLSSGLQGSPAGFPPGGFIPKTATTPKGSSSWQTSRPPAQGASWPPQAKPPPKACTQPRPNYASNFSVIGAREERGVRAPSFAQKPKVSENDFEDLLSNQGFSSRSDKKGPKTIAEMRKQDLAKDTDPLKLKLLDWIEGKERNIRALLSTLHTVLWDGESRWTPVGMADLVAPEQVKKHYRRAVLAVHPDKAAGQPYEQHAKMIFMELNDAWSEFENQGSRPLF
# Method: (§1) Differentially SILAC-encoded cell lysates were either incubated with the inhibitor beads displaying immobilized AX14596 or control resin devoid of ligand. In parallel, the supernatant from the first binding step was subjected to a second incubation with the AX14596 resin (FIG. 4). The resulting three elution fractions were combined, resolved by gel electrophoresis, proteolytically digested and the relative abundance of the retained proteins quantified. Proteins showing considerable binding to the control resin were identified as non-specific interactors and therefore not considered further. […] These target-specific ratios were similar in “label switch” experiments (FIGS. 6a and 6c). The binding equilibrium was determined in parallel control SILAC experiments as well as the excess of the immobilized compound over its cellular targets, the excess preferably being a molar excess (FIG. 7 and FIG. 8).
# (§2) Cysteine carbamidomethylation was set as a fixed modification and N-acetyl protein and oxidized methionine were allowed as variable modifications. Spectra that were determined to result from heavy labeled peptides in the pre-search detection of SILAC partners by MaxQuant were searched with the fixed modifications Lys^4, Lys^8, Arg^6 and Arg^10, whereas MS/MS spectra for which no SILAC state could be assigned before database searching were searched with Lys^4, Lys^8, Arg^6 and Arg^10 as variable modifications. The mass tolerance was set to 5 ppm for monoisotopic precursor ions and to 0.5 Da for MS/MS peaks. The minimum peptide length was set to 6 amino acids and up to three missed cleavages and three isotopically labeled amino acids were permitted per peptide. The accepted false discovery rate (FDR) was 1% for the proteins and peptides. The cut-off for the posterior error probability (PEP) of peptides was set to 10%. Peptide PEPs were determined by generating Mascot score and peptide-length-dependent histograms for both the forward and the reverse hits and then deriving the probability of a false identification for a given top-scoring peptide using Bayes' theorem. The PEPs of peptides belonging to the same proteins were then multiplied. Each peptide sequence was considered only once with the lowest PEP determined in case of multiple sequencing of the same isotopic pattern or of peptide species with different SILAC, charge or modification states. Proteins were then sorted according to their products of their peptide PEPs and included until a FDR of 1% was reached according to the fraction of reverse proteins contained in the protein list. In addition to the FDR threshold applied for protein identification, proteins were only included when they were identified with at least two peptides (of which one was required to be unique for the protein) and quantified if at least on quantifiable SILAC pair was associated with them. Outliers were not removed as protein ratios were calculated as the median instead of the average of all peptide ratios. For peptides shared among different identified proteins, SILAC ratios were only considered for the ratio of the protein identified with the highest number of unique peptides. Protein ratios for the different in vitro association experiments were corrected for the initial SILAC pooling ratio, which was determined from the median of protein ratios in pooled SILAC-encoded cell extracts.
# [2] = target: RIPK2 (Homo sapiens, UniProt O43353)
# Chain of RIPK2 (O43353 whole entry): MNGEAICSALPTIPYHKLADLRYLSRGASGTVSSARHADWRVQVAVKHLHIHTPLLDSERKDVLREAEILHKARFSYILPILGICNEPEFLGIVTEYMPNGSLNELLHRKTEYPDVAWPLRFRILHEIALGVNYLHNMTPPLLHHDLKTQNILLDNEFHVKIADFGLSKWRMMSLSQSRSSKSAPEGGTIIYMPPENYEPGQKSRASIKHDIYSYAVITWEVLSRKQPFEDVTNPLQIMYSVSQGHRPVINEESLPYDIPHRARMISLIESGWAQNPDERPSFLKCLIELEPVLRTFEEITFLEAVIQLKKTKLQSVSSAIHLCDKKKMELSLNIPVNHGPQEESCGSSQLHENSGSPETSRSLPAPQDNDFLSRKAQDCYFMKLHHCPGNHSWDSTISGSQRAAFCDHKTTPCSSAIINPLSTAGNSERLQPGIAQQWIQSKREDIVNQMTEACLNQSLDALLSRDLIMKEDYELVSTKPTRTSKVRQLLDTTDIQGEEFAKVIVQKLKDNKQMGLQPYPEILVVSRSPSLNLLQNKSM
# Method: as §1, §2
# [3] = target: T2, YES (YES1) (Homo sapiens, UniProt P07947)
# T2 construct: endogenous in cells; host or cells: HeLa S3
# T2 sequence (P07947 whole entry): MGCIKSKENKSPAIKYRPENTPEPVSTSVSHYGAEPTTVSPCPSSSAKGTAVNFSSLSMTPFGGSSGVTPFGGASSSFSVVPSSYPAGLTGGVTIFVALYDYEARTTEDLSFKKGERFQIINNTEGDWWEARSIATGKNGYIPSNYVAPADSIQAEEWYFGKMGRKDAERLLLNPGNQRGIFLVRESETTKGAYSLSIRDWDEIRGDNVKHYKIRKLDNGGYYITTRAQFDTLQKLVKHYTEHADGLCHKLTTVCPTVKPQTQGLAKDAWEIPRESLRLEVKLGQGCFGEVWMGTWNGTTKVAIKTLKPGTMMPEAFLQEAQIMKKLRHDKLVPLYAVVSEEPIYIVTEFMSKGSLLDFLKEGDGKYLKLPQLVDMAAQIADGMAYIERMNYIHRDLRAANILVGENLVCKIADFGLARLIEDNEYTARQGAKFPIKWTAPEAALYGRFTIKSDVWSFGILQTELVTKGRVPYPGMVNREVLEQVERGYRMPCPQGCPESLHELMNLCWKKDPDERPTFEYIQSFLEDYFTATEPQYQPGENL
# Method: as §1, §2
# [4] = target: p38a (MAPK14, IPI00221141) (Homo sapiens, UniProt Q16539)
# Chain of p38a (MAPK14, IPI00221141) (Q16539 1-360 isoform Q16539-2): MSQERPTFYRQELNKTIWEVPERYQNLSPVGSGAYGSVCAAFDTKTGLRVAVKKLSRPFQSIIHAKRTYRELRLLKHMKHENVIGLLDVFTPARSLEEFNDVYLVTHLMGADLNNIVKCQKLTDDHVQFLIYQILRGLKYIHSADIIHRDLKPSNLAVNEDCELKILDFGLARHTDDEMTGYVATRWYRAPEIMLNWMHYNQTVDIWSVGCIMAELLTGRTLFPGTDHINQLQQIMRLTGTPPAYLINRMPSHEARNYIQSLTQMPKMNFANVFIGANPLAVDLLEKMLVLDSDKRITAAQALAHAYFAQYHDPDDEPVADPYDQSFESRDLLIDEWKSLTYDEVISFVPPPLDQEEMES
# Method: as §1, §2
compound,measurement,setting,value
COc1cc2ncnc(Nc3ccc(F)c(Cl)c3)c2cc1OCCCN [AX14596],Ki,[1],82 µM and 82.1 µM
same,r (3 mg/1 mg lysate),[1],2.59
same,r (5 h/2.5 h inc. time),[1],1.05
same,rAVERAGE (2. inc/1. inc),[1],0.45
same,rAVERAGE (control/1. inc),[1],0.04
same,% BOUND,[1]; bound to AX14596 beads,55%
same,Ki,[2],6.2 µM and 6.19 µM
same,r (3 mg/1 mg lysate),[2],2.68
same,r (5 h/2.5 h inc. time),[2],0.90
same,rAVERAGE (2. inc/1. inc),[2],0.06
same,rAVERAGE (control/1. inc),[2],0.02
same,% BOUND,[2]; bound to AX14596 beads,94%
same,Ki,[3],658 µM
same,r (3 mg/1 mg lysate),[3],2.03
same,r (5 h/2.5 h inc. time),[3],0.98
same,rAVERAGE (2. inc/1. inc),[3],0.87
same,rAVERAGE (control/1. inc),[3],0.05
same,% BOUND,[3]; bound to AX14596 beads,13%
same,Ki,[4],168 µM
same,r (3 mg/1 mg lysate),[4],2.87
same,rAVERAGE (2. inc/1. inc),[4],0.63
same,rAVERAGE (control/1. inc),[4],0.03
